Reference: patent publication US20250243427A1, “PRECURSORS OF PHENOLIC FRAGRANT COMPOUNDS” (GIVAUDAN SA, priority 2021, published 2025)

Test: Odor description on paper blotter
Conditions: 1% solution in EtOH on paper blotter, 24 h

Row | Molecule | Odor description
1 | CC/C=C\CC(C)Oc1ccc(C=O)cc1OCC (stereo not shown) [Example 4, (Z)-3-ethoxy-4-(hept-4-en-2-yloxy)benzaldehyde] | sweet (brown sugar) powdery (vanillin, chocolate, ice cream)
2 | CC(C)=CCCOc1ccc(C)cc1 [Example 44, 1-methyl-4-((4-methylpent-3-en-1-yl)oxy)benzene] | animalic, leathery, phenolic, paracresol
3 | CCCC(C)=CCCOc1ccc(C=O)cc1OC [Example 38, 3-methoxy-4-((4-methylhept-3-en-1-yl)oxy)benzaldehyde] | powdery, vanilla, chocolate
4 | CC/C=C\CCOc1ccccc1OCC [Example 39, (Z)-1-ethoxy-2-(hex-3-en-1-yloxy)benzene] | medicinal, phenolic, vanilla
5 | C=CCC(Oc1ccc(C=O)cc1OCC)C(=O)OCC (stereo not shown) [Example 61, ethyl 2-(2-ethoxy-4-formylphenoxy)pent-4-enoate] | sweet powdery gourmand (vanilla, coffee) creamy (vanilla, milky)
6 | CC/C=C/CCOc1ccc(C=O)cc1OCC [Example 2, (E)-3-ethoxy-4-(hex-3-en-1-yloxy)benzaldehyde] | powdery (vanilla, creamy) slightly fruity (raspberry, strawberry)
7 | CCc1ccc(OCCC=C(C)C)cc1 [Example 42, 1-ethyl-4-((4-methylpent-3-en-1-yl)oxy)benzene] | animalic, leathery, phenolic, paracresol
8 | C=CCC(CC=C)Oc1ccc(C=O)cc1OCC [Example 22, 3-ethoxy-4-(hepta-1,6-dien-4-yloxy)benzaldehyde] | powdery (creamy, vanilla)
9 | CC/C=C\CCOc1ccccc1C(=O)CC [Example 46, (Z)-1-(2-(hex-3-en-1-yloxy)phenyl)propan-1-one] | green, wintergreen
10 | COc1cc(C)cc(OCCC=C(C)C)c1 [Example 43, 1-methoxy-3-methyl-5-((4-methylpent-3-en-1-yl)oxy)benzene] | animalic, leathery, phenolic, paracresol, green, hay, rooty
11 | C=C(C)CCOc1ccc(C=O)cc1OCC [Example 15, 3-ethoxy-4-((3-methylbut-3-en-1-yl)oxy)benzaldehyde] | mild, powdery, spicy
12 | CCOc1cc(C=O)ccc1OCCC=CCCOc1ccc(C=O)cc1OCC [Example 52, 4,4′-(hex-3-ene-1,6-diylbis(oxy))bis(3-ethoxybenzaldehyde)] | powdery (vanilla)
13 | C=CCC(C=C(C)C)Oc1ccc(CCC(C)=O)cc1 (stereo not shown) [Example 27, 4-(4-((6-methylhepta-1,5-dien-4-yl)oxy)phenyl)butan-2-one] | fruity (powdery, sweet, raspberry)
14 | CC/C=C\CC(C)Oc1ccc(CCC(C)=O)cc1 (stereo not shown) [Example 5, (Z)-4-(4-(hept-4-en-2-yloxy)phenyl)butan-2-one] | raspberry (fruity, ripe, fresh)
15 | CC/C=C\CCOc1ccc(C=NOC)cc1OCC [Example 47, 3-ethoxy-4-(((Z)-hex-3-en-1-yl)oxy)benzaldehyde O-methyl oxime] | vanilla (sweet, gourmand, carnation floral, chestnut cream)
16 | CCOc1cc(C=O)ccc1OC1CC=CCC1 (stereo not shown) [Example 51, 4-(cyclohex-3-en-1-yloxy)-3-ethoxybenzaldehyde] | powdery (vanilla)
17 | CCOc1cc(C=O)ccc1OCC/C=C/C(C)C [Example 32, (E)-3-ethoxy-4-((5-methylhex-3-en-1-yl)oxy)benzaldehyde] | powdery, vanilla, green, hazelnut, chocolate
18 | CCC(C)=CCCOc1ccc(CCC(C)=O)cc1 [Example 36, 4-(4-((4-methylhex-3-en-1-yl)oxy)phenyl)butan-2-one] | fruity, raspberry, sweet, powdery
19 | CC/C=C\CCOc1cc(C)cc(OC)c1 [Example 41, (Z)-1-(hex-3-en-1-yloxy)-3-methoxy-5-methylbenzene] | green, bell pepper

Row | Molecule | Odor description
20 | C=CCCOc1cc(C)c(C(=O)OC)c(O)c1C [Example 14, methyl 4-(but-3-en-1-yloxy)-2-hydroxy-3,6-dimethylbenzoate] | slightly mossy
21 | CCCc1cccc(OCCC=C(C)C)c1 [Example 45, 1-((4-methylpent-3-en-1-yl)oxy)-3-propylbenzene] | animalic, leathery, phenolic, paracresol, green, hay, rooty
22 | CC/C=C\CCOc1ccc(COC(C)C)cc1OCC [Example 50, (Z)-2-ethoxy-1-(hex-3-en-1-yloxy)-4-(isopropoxymethyl)benzene] | spicy (eugenol, smokey), powdery (vanilla), green
23 | C=CCC(CC)Oc1ccc(CCC(C)=O)cc1 (stereo not shown) [Example 25, 4-(4-(hex-5-en-3-yloxy)phenyl)butan-2-one] | sweet (icing sugar cristal) raspberry
24 | C=CCCOc1ccc(CC=C)cc1OC [Example 13, 4-allyl-1-(but-3-en-1-yloxy)-2-methoxybenzene] | slightly spicy (iso eugenol) fruity (berry)
25 | C=CCC(CC=C)Oc1ccc(CCC(C)=O)cc1 [Example 23, 4-(4-(hepta-1,6-dien-4-yloxy)phenyl)butan-2-one] | fruity (raspberry)
26 | C=CCC(CCC)Oc1ccc(CCC(C)=O)cc1 (stereo not shown) [Example 21, 4-(4-(hept-1-en-4-yloxy)phenyl)butan-2-one] | raspberry
27 | CC/C=C/CCOc1ccc(CCC(C)=O)cc1 [Example 7, (E)-4-(4-(hex-3-en-1-yloxy)phenyl)butan-2-one] | raspberry
28 | 3-ethoxy-4-((4-methylhepta-3,6-dien-1-yl)oxy)benzaldehyde and 3-ethoxy-4-((4-methylhepta-3,5-dien-1-yl)oxy)benzaldehyde [Example 29] | powdery (vanilla) sweet (sugary)
29 | C=CCC(C=C(C)C)Oc1ccc(C=O)cc1OCC (stereo not shown) [Example 24, 3-ethoxy-4-((6-methylhepta-1,5-dien-4-yl)oxy)benzaldehyde] | powdery (creamy, vanilla)
30 | CC=CCCOc1cc(C)c(C(=O)OC)c(O)c1C [Example 63, methyl 2-hydroxy-3,6-dimethyl-4-(pent-3-en-1-yloxy)benzoate] | mossy, evernyl, dry powdery
31 | CC/C=C\CCOc1ccc(COC)cc1OCC [Example 49, (Z)-2-ethoxy-1-(hex-3-en-1-yloxy)-4-(methoxymethyl)benzene] | spicy (eugenol, smokey), powdery (vanilla)
32 | CC/C=C\CCOc1ccc(COCC)cc1OCC [Example 48, (Z)-2-ethoxy-4-(ethoxymethyl)-1-(hex-3-en-1-yloxy)benzene] | spicy (eugenol, smokey), powdery (vanilla)
33 | COC(=O)c1c(C)cc(OCCC=C(C)C)c(C)c1O [Example 62, methyl 2-hydroxy-3,6-dimethyl-4-((4-methylpent-3-en-1-yl)oxy)benzoate] | mossy (evernyl)
34 | CCOc1cc(C=O)ccc1OCCC=CC(=O)OC [Example 60, methyl 5-(2-ethoxy-4-formylphenoxy)pent-2-enoate] | sweet powdery gourmand, vanilla, coffee, creamy, vanilla, milky
35 | COc1cc(C=O)ccc1OCCC=C(C)C [Example 37, 3-methoxy-4-((4-methylpent-3-en-1-yl)oxy)benzaldehyde] | powdery, vanilla, creamy
36 | CCOc1cc(C=O)ccc1OCCC=C(C)CC [Example 40, 3-ethoxy-4-((4-methylhex-3-en-1-yl)oxy)benzaldehyde] | powdery, vanilla, creamy, chocolate, slightly butyric
37 | CCC=CCCOc1cc(C)ccc1C(C)C [Example 30, 2-(hex-3-en-1-yloxy)-1-isopropyl-4-methylbenzene] | aromatic, thymol, menthol
